# Source: patent publication US11826426B2, “Nanoscale metal-organic layers and metal-organic nanoplates for x-ray induced photodynamic therapy, radiotherapy, radiodynamic therapy, chemotherapy, immunotherapy, and any combination thereof” (priority 2017, dated 2023)
# Experiments:
# Assay type in all cases: cell-based, murine
# COX-2 = COX-2 assay (cell membrane damage by RDT); settings: CT26, 10 μM 4 h; for COX-2 mean fluorescence intensities (flow cytometry): with X-ray irradiation
# Experimental: Thus, the cell membrane damage caused by RDT upon X-ray irradiation was investigated by COX-2 assay (BD Bioscience, Franklin Lakes, New Jersey, United States of America) in CT26 cells. Cells were seeded on cover slides in 6-well plates and cultured for 12 h then incubated with Hf12-DBP, Hf12-DBP-Pt, H2DBP-Pt or PBS at a Hf concentration of 10 μM or ligand with concentration of 10 μM for 4 h followed by X-ray irradiation (250 kVp, 15 mA, mm Cu filter) at 0 and 2 Gy dose. Cells were fixed with 4% paraformaldehyde immediately after X-ray or light irradiation. Biotin-conjugated anti-COX-2 antibody with concentration of 10 μg/mL were incubated with cells at 4° C. overnight then followed by incubation with Cy3-conjugated streptavidin. The nuclei were stained with DAPI. […] The cells were imaged with CLSM and quantified by flow cytometry.
# To further study the stronger RDT effect from the Hf12-DBP-Pt treated group, flow cytometry was performed to quantify the difference of COX-2 upregulation of cells treated with Hf12-DBP-Pt, Hf12-DBP, H2DBP-Pt or H2DBP. The mean fluorescence intensities were 7441, 1804, 821, and 225 for the t cells treated with Hf12-DBP-Pt, Hf12-DBP, H2DBP-Pt and H2DBP with X-ray irradiation, respectively.
# MC38 cells = test: Annexin V/dead cell apoptosis kit, flow cytometry, MC38; settings: 48 h
# Experimental: (§1) The in vitro anticancer efficacy of Hf12-DBP and Hf12-DBP-Pt were further evaluated on CT26 and MC38 cells. Cells were cultured in a 6-well plate overnight and incubated with particles at a Hf concentration of 20 μM for 4 h followed by irradiation with 0 or 2 Gy X-ray (250 kVp, 15 mA, 1 mm Cu filter). 48 h later, the cells were stained according to the AlexaFluor 488 Annexin V/dead cell apoptosis kit (Life Technologies, Carlsbad, California United States of America) and quantified by flow cytometry.
# as §1, with “POM, Hf6-QPDC-Ir, Hf12-QPDC-Ir” for “Hf12-DBP”, “POM@Hf12-QPDC-Ir” for “Hf12-DBP-Pt”, “were” for “were further”, “μM or equivalent W concentration” for “μM”, “California,” for “California”, “cytometry. […]” for “cytometry.”
# CT26 cells [1] = test: Annexin V/dead cell apoptosis kit, flow cytometry, CT26; settings: 48 h
# Experimental: as §1
# as §1, with “POM, Hf6-QPDC-Ir, Hf12-QPDC-Ir” for “Hf12-DBP”, “POM@Hf12-QPDC-Ir” for “Hf12-DBP-Pt”, “were” for “were further”, “μM or equivalent W concentration” for “μM”, “California,” for “California”
# CT26 cells [2] = test: Intracellular singlet oxygen generation (SOSG, CLSM), Example 1; settings: 20 μM based on Ir, Ru or BPY, 8 h, X-ray 2 Gy
# Experimental: ^1O2 generation in live cells was detected by Singlet Oxygen Sensor Green (SOSG, Life Technology, USA). CT26 cells were seeded in a 3.5-cm petri dish and cultured for 12 h. The culture medium was then replaced with fresh medium containing 1 μM SOSG to preload the cells with SOSG. After incubating for 30 min, the cells were washed by PBS three times to remove excess SOSG. The cells were incubated in PBS, with Hf-MOLs or ligands at a ligand concentration of 20 μM for 8 h, then washed with PBS three times to remove excess MOLs or ligands. X-ray irradiation was applied to cells at a dose of 2 Gy (250 kVp, 15 mA, 1-mm Cu filter). Confocal laser scanning microscopy (CLSM; FV1000 Laser Scanning Confocal Microscope, Olympus Corporation, Tokyo, Japan) was used to visualize the ^1O2 generated in the live cells by detecting the green fluorescence inside the cells.
# The mechanism of X-ray induced cytotoxicity on CT26 cells was explored. ^1O2 generation in live cells was examined by Singlet Oxygen Sensor Green (SOSG) and detected by confocal laser scanning microscopy (CLSM). After preloading cells with SOSG and incubating them with PBS, Hf-MOLs, or H3BPY ligand for 8 h at a concentration of 20 μM based on Ir, Ru, or BPY, respectively, they were irradiated with X-rays at a dose of 2 Gy, immediately followed by CLSM imaging.
# [3] = Table 9, 0 Gy (dark), Hf 20 μM 4 h
# [4] = Table 9, 2 Gy X-ray, Hf 20 μM 4 h
# [5] = Table 8, 0 Gy (dark), Hf 20 μM 4 h
# [6] = Table 8, 2 Gy X-ray, Hf 20 μM 4 h
# [7] = Table 11, 0 Gy (dark), Hf 20 μM or equivalent W 4 h
# [8] = Table 11, 2 Gy X-ray, Hf 20 μM or equivalent W 4 h
# [9] = Table 10, 0 Gy (dark), Hf 20 μM or equivalent W 4 h
# [10] = Table 10, 2 Gy X-ray, Hf 20 μM or equivalent W 4 h
compound,measurement,setting,value
"O=C(O)c1ccc(-c2c3nc(cc4ccc([nH]4)c(-c4ccc(C(=O)O)cc4)c4nc(cc5ccc2[nH]5)C=C4)C=C3)cc1 [H2DBP, 5,15-di(p-benzoato)porphyrin]",COX-2 mean fluorescence intensities (flow cytometry),COX-2,225
"O=C(O)c1ccc(-c2c3nc(cc4ccc([n-]4)c(-c4ccc(C(=O)O)cc4)c4nc(cc5ccc2[n-]5)C=C4)C=C3)cc1.[Pt+2] [H2DBP-Pt, platinum-complexed 5, 15-di(p-benzoato)porphyrin]",Early apoptosis,MC38 cells; [3],3.99%
same,Healthy cells,MC38 cells; [3],93.9%
same,Late apoptosis,MC38 cells; [3],1.90%
same,Necrosis,MC38 cells; [3],3.18%
same,Early apoptosis,MC38 cells; [4],15.9%
same,Healthy cells,MC38 cells; [4],78.2%
same,Late apoptosis,MC38 cells; [4],5.31%
same,Necrosis,MC38 cells; [4],0.55%
same,COX-2 mean fluorescence intensities (flow cytometry),COX-2,821
same,COX-2 upregulation by CLSM,COX-2; with X-ray irradiation (2 Gy),No fluorescence signal
same,COX-2 upregulation by CLSM,COX-2; without X-ray irradiation,No fluorescence signal
same,Early apoptosis,CT26 cells [1]; [5],0.66%
same,Healthy cells,CT26 cells [1]; [5],88.2%
same,Late apoptosis,CT26 cells [1]; [5],4.86%
same,Necrosis,CT26 cells [1]; [5],6.26%
same,Early apoptosis,CT26 cells [1]; [6],0.73%
same,Healthy cells,CT26 cells [1]; [6],69.3%
same,Late apoptosis,CT26 cells [1]; [6],8.45%
same,Necrosis,CT26 cells [1]; [6],21.5%
"O=C(O)c1ccc(-c2cc(-c3ccc(C(=O)O)cc3)nc(-c3cc(C(=O)O)ccn3)c2)cc1 [H3BPY, 4′,6′-dibenzoato-[2,2′-bipyridine]-4-carboxylic acid]",SOSG fluorescence (^1O2 in live cells),CT26 cells [2],no SOSG signal
"[P2W18O62]^6− [POM, reference compound]",Early apoptosis,MC38 cells; [7],0.44%
same,Healthy cells,MC38 cells; [7],97.3%
same,Late apoptosis,MC38 cells; [7],0.86%
same,Necrosis,MC38 cells; [7],1.53%
same,Early apoptosis,MC38 cells; [8],2.35%
same,Healthy cells,MC38 cells; [8],70.9%
same,Late apoptosis,MC38 cells; [8],14.0%
same,Necrosis,MC38 cells; [8],12.7%
same,Early apoptosis,CT26 cells [1]; [9],0.051%
same,Healthy cells,CT26 cells [1]; [9],99.7%
same,Late apoptosis,CT26 cells [1]; [9],0.0057%
same,Necrosis,CT26 cells [1]; [9],0.21%
same,Early apoptosis,CT26 cells [1]; [10],5.71%
same,Healthy cells,CT26 cells [1]; [10],83.1%
same,Late apoptosis,CT26 cells [1]; [10],8.14%
same,Necrosis,CT26 cells [1]; [10],3.05%
